Experiments:
Test in all cases: relative viability (nuclei count vs DMSO), 5 days (fraction); higher = more cells survive
[1] = compound: COc1ncc(-c2ccc3nccc(-c4ccnnc4)c3c2)cc1NS(=O)(=O)c1ccc(F)cc1F [Omipalisib] + CS(=O)(=O)N1CCN(Cc2cc3nc(-c4cccc5[nH]ncc45)nc(N4CCOCC4)c3s2)CC1 [Pictilisib] (partner 1 µM)
Outline: (§1)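 For relative viability, nuclei counts in treated wells were divided by those in vehicle wells. Lung cancer cell lines had been pin-tool dosed in 1536-well plates the day after seeding and cultured for 5 days, then fixed and stained in one step (final 0.05% Triton X-100, 1% formaldehyde, 1 ug/ml Hoechst) and imaged at 4×. Doses were one drug alone or a fixed anchor-drug dose plus five library-drug doses (not always all listed) in √10 steps, and values are duplicate-plate medians.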

[2] = compound: COc1ncc(-c2ccc3nccc(-c4ccnnc4)c3c2)cc1NS(=O)(=O)c1ccc(F)cc1F [Omipalisib] + Cc1nc(Nc2ncc(C(=O)Nc3c(C)cccc3Cl)s2)cc(N2CCN(CCO)CC2)n1 [Dasatinib] (partner 0.075 µM)
Outline: as §1

[3] = compound: COc1ncc(-c2ccc3nccc(-c4ccnnc4)c3c2)cc1NS(=O)(=O)c1ccc(F)cc1F [Omipalisib] + NC(=O)Nc1cc(-c2cccc(F)c2)sc1C(=O)N[C@H]1CCCNC1 [AZD7762] (partner 0.2 µM)
Outline: as §1

[4] = compound: COc1ncc(-c2ccc3nccc(-c4ccnnc4)c3c2)cc1NS(=O)(=O)c1ccc(F)cc1F [Omipalisib] + Nc1ncn([C@H]2C[C@H](O)[C@@H](CO)O2)c(=O)n1 [Decitabine] (partner 2 µM)
Outline: as §1

[5] = compound: COc1ncc(-c2ccc3nccc(-c4ccnnc4)c3c2)cc1NS(=O)(=O)c1ccc(F)cc1F [Omipalisib] + O=C(CCCCCCC(=O)Nc1ccccc1)NO [Vorinostat] (partner 1 µM)
Outline: as §1

[6] = compound: COc1ncc(-c2ccc3nccc(-c4ccnnc4)c3c2)cc1NS(=O)(=O)c1ccc(F)cc1F [Omipalisib] + C[C@]1(O)C[C@@H](c2nc(-c3ccc4ccc(-c5ccccc5)nc4c3)c3c(N)nccn32)C1 [Linsitinib] (partner 1 µM)
Outline: as §1

Cell Line	relative viability ([1]; first compound 0.0003 µM)	relative viability ([1]; first compound 0.003 µM)	relative viability ([1]; first compound 0.03 µM)	relative viability ([2]; first compound 0.0003 µM)	relative viability ([2]; first compound 0.003 µM)	relative viability ([2]; first compound 0.03 µM)	relative viability ([3]; first compound 0.0003 µM)	relative viability ([3]; first compound 0.003 µM)	relative viability ([3]; first compound 0.03 µM)	relative viability ([4]; first compound 0.0003 µM)	relative viability ([4]; first compound 0.003 µM)	relative viability ([4]; first compound 0.03 µM)	relative viability ([5]; first compound 0.0003 µM)	relative viability ([5]; first compound 0.003 µM)	relative viability ([5]; first compound 0.03 µM)	relative viability ([6]; first compound 0.0003 µM)	relative viability ([6]; first compound 0.003 µM)	relative viability ([6]; first compound 0.03 µM)
ChaGo-K-1	0.635	0.652	0.809	0.657	0.583	0.473	0.899	0.811	0.836	0.494	0.448	0.47	0.732	0.619	0.675			
EKVX	0.45	0.434	0.393	0.398	0.302	0.175	0.638	0.723	0.285	0.305	0.289	0.238	0.709	0.588	0.256	1.06	0.76	0.456
HARA	0.464	0.661	0.354	0.291	0.288	0.187	0.384	0.461	0.334	0.471	0.394	0.258	0.453	0.459	0.201	0.949	0.691	0.275
NCI-H520	0.243	0.212	0.251	0.159	0.162	0.131				0.51	0.369	0.233	0.623	0.458	0.214	0.9	0.672	0.275
COR-L23	0.723	0.709	0.449	0.487	0.323	0.239				0.433	0.355	0.296	0.404	0.377	0.242	0.813	0.771	0.38

From the supplement of paper PMC10307832
